Measured values published in patent US20240299382A1, “COMPOUNDS AND METHODS FOR DEGRADING RCOR1, LSD1, HDAC1 AND HDAC2 IN THE COREST” (University of Florida Research Foundation, Inc., priority 2021, published 2024).
“Also recorded” adds a separate entry of the source. Read-outs that look alike come from different tables or passages of the source.

Tests used:
[1] = tested on: MDA-MB-231 and T47D cells; test: Viability assay using CellTiter-Glo, four days; assay type: cell-based; details: SR-4370 compared to UF010
Experimental: (§1) MDA-MB-231 and T47D cells were treated with the indicated compounds for four days (FIG. 5A). Viability assays were done using CellTiter-Glo. Shown are normalized values vs. vehicle±SEM (n=3). IC50 values are calculated using Prism 6. Note that SR-3460 has no HDACi activity. Cells were seeded and then continuously treated with SR-4370 or UF010 at the indicated concentrations for 15 days. Colonies were fixed and stained (FIG. 5B).

[2] = tested on: HDACs; test: HDAC inhibition (HDACi activity); assay type: biochemical
[3] = mice, 50 mg/kg orally; cited from earlier work
[4] = biological target: T1, RCOR1 (Homo sapiens, UniProt Q9UKL0); test: Western blotting of protein levels in MCF7 cells; assay type: cell-based; details: for RCOR1 protein level: indicated concentrations; for degradation of RCOR1: 10 μM, 6 hours, Western blotting
T1 construct: Cells were then lysed and subjected to Western blotting with antibodies against the indicated proteins; endogenous in cells; host or cells: MCF7
Experimental: (§2) […] Cells were pretreated with the proteasomal inhibitor MG132 (MG, 3 μM) or the neddylation inhibitor MLN4924 (MLN, 1 μM) for 2 hours. Cells were then lysed and subjected to Western blotting with antibodies against the indicated proteins. The levels of RCOR1 were normalized against that of tubulin and shown as % of DMSO control.
(§3) Cells were pretreated with the proteasomal inhibitor MG132 (MG, 3 μM) or the neddylation inhibitor MLN4924 (MLN, 1 μM) for 2 hours. Cells were then lysed and subjected to Western blotting with antibodies against the indicated proteins. The levels of RCOR1 and LSD1 were normalized against that of tubulin and shown as % of DMSO control.

[5] = biological target: T2, LSD1 (Homo sapiens, UniProt O60341); test: Western blotting of protein levels in MCF7 cells; assay type: cell-based; details: for LSD1 protein level / degradation of LSD1: MCF7 cells; for LSD1 protein level: indicated concentrations, 14 hours; for degradation of LSD1: 10 μM, 6 hours, Western blotting
T2 construct: Cells were then lysed and subjected to Western blotting with antibodies against the indicated proteins; endogenous in cells; host or cells: MCF7
Experimental: as §2, §3

[6] = tested on: MTA2; test: Western blotting of protein levels in MCF7 cells; assay type: cell-based; details: 14 hours
Experimental: (§4) MCF7 cells were exposed to DMSO, SR-4370 and other compounds at the indicated concentrations for 14 hours. Cells were pretreated with the proteasomal inhibitor MG132 (MG, 3 μM) or the neddylation inhibitor MLN4924 (MLN, 1 μM) for 2 hours. Cells were then lysed and subjected to Western blotting with antibodies against the indicated proteins. The levels of RCOR1 and LSD1 were normalized against that of tubulin and shown as % of DMSO control.

[7] = tested on: RCOR3; test: Western blotting of protein levels in MCF7 cells; assay type: cell-based; details: 14 hours
Experimental: as §4

[8] = tested on: RCOR2; test: Western blotting of protein levels in MCF7 cells; assay type: cell-based; details: 14 hours
Experimental: as §4

[9] = tested on: LSD2; test: Western blotting of protein levels in MCF7 cells; assay type: cell-based; details: 14 hours
Experimental: as §4

[10] = biological target: T3, HDAC8 (Homo sapiens, UniProt Q9BY41); test: Western blotting of protein levels in MCF7 cells; assay type: cell-based; details: 14 hours
T3 construct: endogenous in cells; host or cells: MCF7
T3 sequence (Q9BY41 1-377): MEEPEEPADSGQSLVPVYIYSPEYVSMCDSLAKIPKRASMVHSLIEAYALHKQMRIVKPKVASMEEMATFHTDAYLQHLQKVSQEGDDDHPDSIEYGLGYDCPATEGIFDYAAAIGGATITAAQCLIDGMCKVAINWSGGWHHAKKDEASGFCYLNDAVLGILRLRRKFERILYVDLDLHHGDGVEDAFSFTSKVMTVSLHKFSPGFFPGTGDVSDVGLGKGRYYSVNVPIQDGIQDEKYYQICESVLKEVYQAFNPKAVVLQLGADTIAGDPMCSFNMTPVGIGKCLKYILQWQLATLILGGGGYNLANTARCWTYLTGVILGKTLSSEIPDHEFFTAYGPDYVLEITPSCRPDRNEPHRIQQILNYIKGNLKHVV
Experimental: as §4

[11] = biological target: T4, HDAC3 (Homo sapiens, UniProt O15379); test: Western blotting of protein levels in MCF7 cells; assay type: cell-based; details: 14 hours
T4 construct: endogenous in cells; host or cells: MCF7
Experimental: as §4

[12] = tested on: RBBP4; test: Western blotting of protein levels in MCF7 cells; assay type: cell-based; details: 14 hours
Experimental: as §4

[13] = Blood chemistry tests in tumor-bearing athymic mice
[14] = biological target: T5, HDAC1 (Homo sapiens, UniProt Q13547); test: Western blotting of protein levels in MCF7 cells; assay type: cell-based; details: for degradation of HDAC1: 10 μM, 6 hours, Western blotting
T5 construct: endogenous in cells; host or cells: MCF7
Experimental: (§5) MCF7 cells were exposed to DMSO or the indicated compounds (10 μM) for 6 hours. Cells were pretreated with the proteasomal inhibitor MG132 (MG, 3 μM) or the neddylation inhibitor MLN4924 (MLN, 1 μM) for 2 hours. Cells were then lysed and subjected to Western blotting with antibodies against the indicated proteins. The levels of RCOR1 were normalized against that of tubulin and shown as % of DMSO control.
as §4

[15] = biological target: T6, HDAC2 (Homo sapiens, UniProt Q92769); test: Western blotting of protein levels in MCF7 cells; assay type: cell-based; details: for degradation of HDAC2: 10 μM, 6 hours, Western blotting
T6 construct: endogenous in cells; host or cells: MCF7
Experimental: as §5, §4

[16] = Tolerability and body weights of tumor-bearing mice dosed with SR-4370
Experimental: Female BALB/c mice bearing the EMT6 tumors were dosed with vehicle or SR-4370 (50 mg/kg) via intraperitoneal injection.
(§6) In vivo tolerability of UF010, the first identified compound of the benzoylhydrazide HDACi class, was evaluated in mice. […] We conducted pilot experiments to evaluate PK parameters of UF010. As with the MTD experiment, mice were dosed orally at 80 mg/kg. Plasma samples were collected at various time points and the amount of UF010 was determined.

[17] = tested on: BC cell lines; test: Colony formation, continuous treatment for 15 days; assay type: cell-based; details: continuous treatment 15 days, colonies; compared to UF010
Experimental: as §1

[18] = tested on: MDA-MB-231 xenograft tumors; orthotopic EMT6 and 4T1 mouse breast tumors; test: In vivo efficacy in breast tumor models; details: mice bearing MDA-MB-231 xenograft, EMT6 or 4T1 tumors
Experimental: Female athymic mice bearing the MDA-MB-231 xenograft tumors were dosed with vehicle or SR-4370 (FIG. 3A). Tumor volumes and final tumor weights are plotted (average±SD). *: p<0.05, **: p<0.01 (FIGS. 3B and 3C). Female BALB/c mice bearing the orthotopic EMT6 (FIG. 3B) and 4T1 (FIG. 3C) mouse breast tumors were dosed with SR-4370 as in (FIG. 3A). At the endpoint, tumors were removed from euthanized mice and weighed. The tumor weight plots are shown (average±SD). The p values were calculated based on t test.

[19] = data from ref 80; cited from earlier work
[20] = PK parameters after oral dosing in mice; details: 80 mg/kg orally
Experimental: as §6

[21] = In vivo tolerability / MTD of UF010, oral dosing; details: mice, oral dosing up to 80 mg/kg
Experimental: as §6

[22] = MCF7 cells pretreated with MLN4924 (1 μM) or MG132 (3 μM) for 2 hours
[23] = tumor-bearing athymic mice, average ± SD, n = 6
[24] = tumor-bearing mice at the endpoint
[25] = indicated concentrations, 14 hours

T1 sequence (Q9UKL0 whole entry): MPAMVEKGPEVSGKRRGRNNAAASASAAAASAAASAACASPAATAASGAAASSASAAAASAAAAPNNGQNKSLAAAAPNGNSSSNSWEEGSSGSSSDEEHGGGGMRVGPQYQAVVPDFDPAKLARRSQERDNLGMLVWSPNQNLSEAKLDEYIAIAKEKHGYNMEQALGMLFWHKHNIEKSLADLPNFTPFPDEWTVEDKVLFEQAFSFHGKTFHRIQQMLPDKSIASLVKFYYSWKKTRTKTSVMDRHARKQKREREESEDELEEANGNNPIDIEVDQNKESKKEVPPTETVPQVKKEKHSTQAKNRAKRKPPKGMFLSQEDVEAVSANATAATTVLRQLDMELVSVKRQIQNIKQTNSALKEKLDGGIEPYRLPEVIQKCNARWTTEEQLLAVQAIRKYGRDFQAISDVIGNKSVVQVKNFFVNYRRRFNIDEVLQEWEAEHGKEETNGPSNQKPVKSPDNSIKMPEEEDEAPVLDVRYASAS
T5 sequence (Q13547 whole entry): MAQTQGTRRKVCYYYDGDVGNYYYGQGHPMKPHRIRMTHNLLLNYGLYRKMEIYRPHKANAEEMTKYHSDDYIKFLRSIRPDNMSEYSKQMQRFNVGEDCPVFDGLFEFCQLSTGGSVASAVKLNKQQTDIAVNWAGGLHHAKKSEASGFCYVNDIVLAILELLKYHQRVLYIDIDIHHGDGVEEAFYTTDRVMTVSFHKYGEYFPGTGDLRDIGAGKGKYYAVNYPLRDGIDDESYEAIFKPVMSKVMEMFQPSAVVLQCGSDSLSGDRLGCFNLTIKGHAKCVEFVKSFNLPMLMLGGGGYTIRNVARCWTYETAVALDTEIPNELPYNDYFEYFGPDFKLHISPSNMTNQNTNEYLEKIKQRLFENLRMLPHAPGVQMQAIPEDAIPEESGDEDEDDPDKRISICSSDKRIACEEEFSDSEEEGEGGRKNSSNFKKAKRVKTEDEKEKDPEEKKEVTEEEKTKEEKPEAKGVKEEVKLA
T6 sequence (Q92769 whole entry): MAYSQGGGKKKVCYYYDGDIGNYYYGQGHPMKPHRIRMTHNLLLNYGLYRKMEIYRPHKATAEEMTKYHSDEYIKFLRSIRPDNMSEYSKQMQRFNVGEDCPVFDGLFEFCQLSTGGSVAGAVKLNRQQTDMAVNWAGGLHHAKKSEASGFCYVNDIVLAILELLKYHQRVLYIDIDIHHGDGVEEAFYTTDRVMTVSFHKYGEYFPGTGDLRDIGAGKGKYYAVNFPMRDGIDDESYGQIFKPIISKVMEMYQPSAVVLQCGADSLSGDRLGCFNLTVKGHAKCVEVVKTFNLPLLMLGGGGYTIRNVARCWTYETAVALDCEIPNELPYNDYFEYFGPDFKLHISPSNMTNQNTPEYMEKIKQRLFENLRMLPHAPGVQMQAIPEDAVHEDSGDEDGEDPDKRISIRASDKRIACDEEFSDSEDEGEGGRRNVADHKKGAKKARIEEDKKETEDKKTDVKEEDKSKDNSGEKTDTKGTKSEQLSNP
T4 sequence (O15379 whole entry): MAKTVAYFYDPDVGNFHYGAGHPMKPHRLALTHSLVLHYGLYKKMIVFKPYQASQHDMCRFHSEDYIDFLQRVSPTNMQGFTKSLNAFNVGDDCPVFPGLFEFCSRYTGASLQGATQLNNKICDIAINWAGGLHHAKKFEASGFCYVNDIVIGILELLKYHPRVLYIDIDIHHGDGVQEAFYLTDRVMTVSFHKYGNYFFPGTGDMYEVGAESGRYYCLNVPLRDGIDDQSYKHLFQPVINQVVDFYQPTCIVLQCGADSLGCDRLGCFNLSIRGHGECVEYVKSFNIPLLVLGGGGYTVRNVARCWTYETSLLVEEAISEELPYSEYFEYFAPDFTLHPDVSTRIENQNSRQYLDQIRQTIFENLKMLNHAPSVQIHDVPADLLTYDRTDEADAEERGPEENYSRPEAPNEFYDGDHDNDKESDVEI

CCCCNNC(=O)c1ccccc1-c1ccccc1 [SR-3460]
cytotoxic effects / BC cell growth, short-term treatment [1]: did not inhibit BC cell growth
HDACi activity [2]: does not inhibit HDACs

Cc1ccc(NC(=O)CCCCCC(=O)Nc2ccccc2N)cc1 [4b]
AUC [3]: 1.08 µM·h
Cmax [3]: 1.13 µM
T1/2 [3]: 2.76 h
Tmax [3]: 0.25 h

O=C(/C=C/c1cccc(S(=O)(=O)Nc2ccccc2)c1)NO [belinostat, reference compound]
RCOR1 protein level ([4]; MCF7 cells, 14 hours): notably increased
LSD1 protein level [5]: moderately increased

CCCCNNC(=O)c1ccc(-c2cccc(F)c2F)cc1 [SR-4370]
MTA2 protein level [6]: only moderately reduced at a higher concentration
RCOR3 protein level [7]: largely without affecting
RCOR2 protein level [8]: largely without affecting
LSD2 protein level [9]: largely unaffected
HDAC8 protein level [10]: did not affect
HDAC3 protein level [11]: did not affect
RBBP4 protein level [12]: largely unaffected
downregulation of RCOR1 under neddylation or proteasome inhibition [4, 22]: completely reversed
degradation of RCOR1 ([4]; MCF7 cells): can degrade
DC50 ([4]; MCF7 cells, 14 hours, read-out: DC50 (concentration at which 50% of the target protein is degraded) for RCOR1): < 0.1 µM
RCOR1 protein level ([4]; MCF7 cells, 14 hours): potent and dose-dependent degradation
downregulation of LSD1 under neddylation or proteasome inhibition [5, 22]: completely reversed
degradation of LSD1 [5]: can degrade
LSD1 protein level [5]: potent and dose-dependent degradation
ALP [13, 23]: 49.5 (±8.78) U/L
ALT [13, 23]: 71.60 (±14.06) U/L
BUN [13, 23]: 22.0 (±3.16) mg/dL
Calcium [13, 23]: 8.45 (±0.85) mg/dL
Chloride [13, 23]: 110.0 (±2.17) mmol/L
Cholesterol [13, 23]: 113.0 (±15.92) mg/dL
Creatinine [13, 23]: 0.1 (±0.044) mg/dL
Glucose [13, 23]: 221.17 (±60.6) mg/dL
Phosphorus [13, 23]: 9.73 (±2.69) mg/dL
Potassium [13, 23]: 8.75 (±1.82) mmol/L
Sodium [13, 23]: 147.33 (±1.51) mmol/L
Total bilirubin [13, 23]: 0.25 (±0.054) mg/dL
Total protein [13, 23]: 4.95 (±0.217) g/dL
liver or kidney toxicities [13, 24]: no signs of liver or kidney toxicities
serum concentrations of various analytes versus reference ranges [13, 24]: within reference ranges
cytotoxic effects / BC cell growth, short-term treatment [1]: more potent cytotoxic effects
degradation of HDAC1 [14]: can degrade
HDAC1 protein level [14, 25]: potent and dose-dependent degradation; also recorded: only moderately reduced at a higher concentration
degradation of HDAC2 [15]: can degrade
HDAC2 protein level [15, 25]: potent and dose-dependent degradation; also recorded: only moderately reduced at a higher concentration
tolerability ([16]; SR-4370 up to 50 mg/kg, mice, in vivo efficacy study): completely tolerated
body weights during the treatment period ([16]; tumor-bearing mice, BALB/c mice with EMT6 tumors, 50 mg/kg intraperitoneal, 50 mg/kg): not affected; also recorded: safe as judged by body weights
cytotoxic effects, long-term treatment [17]: more potent cytotoxic effects
anticancer effects in vivo (tumor volumes, tumor weights) [18]: potent anticancer effects

Nc1ccccc1NC(=O)c1ccc(CNC(=O)OCc2cccnc2)cc1 [entinostat, reference compound]
RCOR1 protein level ([4]; MCF7 cells, 14 hours): notably increased
LSD1 protein level [5]: slightly reduced
T1/2 [19]: ~1 h

CCCCNNC(=O)c1ccc(-c2ccccc2)cc1 [SR-3558]
degradation of RCOR1 ([4]; MCF7 cells): can degrade
degradation of LSD1 [5]: can degrade
degradation of HDAC1 [14]: can degrade
degradation of HDAC2 [15]: can degrade

O=C(CCCCCCC(=O)Nc1ccccc1)NO [vorinostat, reference compound]
RCOR1 protein level ([4]; MCF7 cells, 14 hours): notably increased
LSD1 protein level [5]: slightly reduced

CCCCNNC(=O)c1ccc(-c2cncnc2)cc1 [SR-4369]
degradation of RCOR1 ([4]; MCF7 cells): can degrade
degradation of LSD1 [5]: can degrade
degradation of HDAC1 [14]: can degrade
degradation of HDAC2 [15]: can degrade

CCCCNNC(=O)c1ccc(Br)cc1 [UF010]
degradation of RCOR1 ([4]; MCF7 cells): completely inactive
degradation of LSD1 [5]: completely inactive
degradation of HDAC1 [14]: completely inactive
degradation of HDAC2 [15]: completely inactive
HDACi activity [2]: potent HDACi
oral bioavailability [20]: bioavailable orally
AUC ([20]; plasma): 6.07 µM·h
Cmax ([20]; plasma): 5.95 µM
T1/2 ([20]; plasma): 1.24 h
Tmax ([20]; plasma): 0.25 h
in vivo tolerability [21]: completely tolerated without any signs of toxicity or loss of body weight

CCCCNNC(=O)c1ccc(-c2cc(C)cc(F)c2)cc1 [SR-4372]
degradation of RCOR1 ([4]; MCF7 cells): can degrade
degradation of LSD1 [5]: can degrade
degradation of HDAC1 [14]: can degrade
degradation of HDAC2 [15]: can degrade
